{"source": "PubChem BioAssay AID330", "about": "(DTP/NCI, 2004)", "test_system": "P388 leukemia ip, CD2F1 mice, survival T/C", "experiment": "NCI In Vivo Anticancer Drug Screen. Data for tumor model P388 Leukemia (intraperitoneal) in CD2F1 (CDF1) mice", "conditions": "endpoint: median survival time, higher = longer survival", "in_short": "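Mice carrying the transplanted tumor received test compound or vehicle. Survival was recorded in each group, and the value is the treated-group measurement divided by that of the vehicle-treated control group.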", "key": {"[1]": {"conditions": "dose: 50.0 mg/kg/injection, schedule: Q01DX009 (ip), vehicle: saline with Tween-80"}, "[2]": {"conditions": "dose: 100.0 mg/kg/injection, schedule: Q01DX009 (ip), vehicle: saline with Tween-80"}, "[3]": {"conditions": "dose: 200.0 mg/kg/injection, schedule: Q01DX009 (ip), vehicle: saline with Tween-80"}}, "note": "Several values for one entry are separate records, joined by “and”; a condition that tells them apart may be missing. Equal entries are not always repeated. Inconclusive results and toxic doses are left out."}
{"smiles": "CS(=O)(=O)OCCN(CCOS(C)(=O)=O)c1ccc(C=Nc2ccc(-c3csc(COc4ccccc4)n3)cc2)cc1", "values": [{"measurement": "T/C", "setting": "dose: 12.5 mg/kg/injection, schedule: Q01DX009 (ip), vehicle: Klucel (hydroxypropylcellulose) (HPC)", "result": "150 % of control and 151 % of control"}, {"measurement": "T/C", "setting": "dose: 25.0 mg/kg/injection, schedule: Q01DX009 (ip), vehicle: Klucel (hydroxypropylcellulose) (HPC)", "result": "151 % of control and 154 % of control and 164 % of control"}, {"measurement": "T/C", "setting": "dose: 25.0 mg/kg/injection, schedule: Q01DX009 (oral), vehicle: Klucel (hydroxypropylcellulose) (HPC)", "result": "101 % of control and 104 % of control"}, {"measurement": "T/C", "setting": "dose: 50.0 mg/kg/injection, schedule: Q01DX009 (ip), vehicle: Klucel (hydroxypropylcellulose) (HPC)", "result": "162 % of control and 164 % of control and 166 % of control"}, {"measurement": "T/C", "setting": "dose: 50.0 mg/kg/injection, schedule: Q01DX009 (oral), vehicle: Klucel (hydroxypropylcellulose) (HPC)", "result": "101 % of control and 106 % of control"}, {"measurement": "T/C", "setting": "dose: 100.0 mg/kg/injection, schedule: Q01DX009 (oral), vehicle: Klucel (hydroxypropylcellulose) (HPC)", "result": "102 % of control and 108 % of control"}, {"measurement": "T/C", "setting": "dose: 200.0 mg/kg/injection, schedule: Q01DX009 (oral), vehicle: Klucel (hydroxypropylcellulose) (HPC)", "result": "107 % of control"}, {"measurement": "T/C", "setting": "dose: 400.0 mg/kg/injection, schedule: Q01DX009 (ip), vehicle: Klucel (hydroxypropylcellulose) (HPC)", "result": "112 % of control"}, {"measurement": "T/C", "setting": "dose: 400.0 mg/kg/injection, schedule: Q01DX009 (oral), vehicle: Klucel (hydroxypropylcellulose) (HPC)", "result": "109 % of control"}, {"measurement": "T/C", "setting": "dose: 800.0 mg/kg/injection, schedule: Q01DX009 (oral), vehicle: Klucel (hydroxypropylcellulose) (HPC)", "result": "109 % of control"}]}
{"smiles": "CCCCC1(CN(C)C)C(=O)N(C)C(=O)N(C2CCCCC2)C1=O", "note": "(stereo not given)", "values": [{"measurement": "T/C", "setting": "[1]", "result": "100 % of control"}, {"measurement": "T/C", "setting": "[2]", "result": "102 % of control"}, {"measurement": "T/C", "setting": "[3]", "result": "99 % of control"}]}
{"smiles": "O=C(Nc1ccc(Sc2ccc(N=Nc3c(O)c(S(=O)(=O)O)cc4cc(S(=O)(=O)O)ccc34)cc2)cc1)c1ccc(N=Nc2c(O)c(S(=O)(=O)O)cc3cc(S(=O)(=O)O)ccc23)cc1", "values": [{"measurement": "T/C", "setting": "dose: 50.0 mg/kg/injection, schedule: Q01DX005 (ip), vehicle: saline with Tween-80", "result": "98 % of control"}, {"measurement": "T/C", "setting": "dose: 100.0 mg/kg/injection, schedule: Q01DX005 (ip), vehicle: saline with Tween-80", "result": "104 % of control"}, {"measurement": "T/C", "setting": "dose: 200.0 mg/kg/injection, schedule: Q01DX005 (ip), vehicle: saline with Tween-80", "result": "104 % of control"}]}
{"smiles": "Cc1cnc2c([N+](=O)[O-])cc(C)c(C)c2c1", "values": [{"measurement": "T/C", "setting": "[1]", "result": "99 % of control"}, {"measurement": "T/C", "setting": "[2]", "result": "99 % of control"}, {"measurement": "T/C", "setting": "[3]", "result": "92 % of control"}]}
{"smiles": "Cc1c(Cl)c(C)c(Cl)c(CCl)c1Cl", "values": [{"measurement": "T/C", "setting": "dose: 18.75 mg/kg/injection, schedule: Q04DX003 (ip), vehicle: saline sonified", "result": "95 % of control"}, {"measurement": "T/C", "setting": "dose: 37.5 mg/kg/injection, schedule: Q04DX003 (ip), vehicle: saline sonified", "result": "109 % of control"}, {"measurement": "T/C", "setting": "dose: 75.0 mg/kg/injection, schedule: Q04DX003 (ip), vehicle: saline sonified", "result": "109 % of control"}]}
{"smiles": "Cc1nn(-c2ccc(Cl)cc2)c2c1c(=O)[nH]c1ccccc12", "values": [{"measurement": "T/C", "setting": "dose: 3.75 mg/kg/injection, schedule: Q01DX005 (ip), vehicle: saline with Tween-80", "result": "98 % of control"}, {"measurement": "T/C", "setting": "dose: 7.5 mg/kg/injection, schedule: Q01DX005 (ip), vehicle: saline with Tween-80", "result": "92 % of control"}, {"measurement": "T/C", "setting": "dose: 15.0 mg/kg/injection, schedule: Q01DX005 (ip), vehicle: saline with Tween-80", "result": "87 % of control and 88 % of control"}, {"measurement": "T/C", "setting": "dose: 60.0 mg/kg/injection, schedule: Q01DX005 (ip), vehicle: saline with Tween-80", "result": "87 % of control"}]}
{"smiles": "Cn1[nH]c2[nH]c(=S)sc(=S)c2c1=O", "values": [{"measurement": "T/C", "setting": "dose: 25.0 mg/kg/injection, schedule: Q01DX005 (ip), vehicle: Klucel (hydroxypropylcellulose) (HPC)", "result": "109 % of control"}, {"measurement": "T/C", "setting": "dose: 50.0 mg/kg/injection, schedule: Q01DX005 (ip), vehicle: Klucel (hydroxypropylcellulose) (HPC)", "result": "109 % of control"}, {"measurement": "T/C", "setting": "dose: 100.0 mg/kg/injection, schedule: Q01DX005 (ip), vehicle: Klucel (hydroxypropylcellulose) (HPC)", "result": "98 % of control"}, {"measurement": "T/C", "setting": "dose: 200.0 mg/kg/injection, schedule: Q01DX005 (ip), vehicle: Klucel (hydroxypropylcellulose) (HPC)", "result": "104 % of control"}]}
{"smiles": "CCCCn1cnc2c(SC)ncnc21", "values": [{"measurement": "T/C", "setting": "dose: 22.0 mg/kg/injection, schedule: Q04DX003 (ip), vehicle: saline with Tween-80", "result": "110 % of control"}, {"measurement": "T/C", "setting": "dose: 33.0 mg/kg/injection, schedule: Q04DX003 (ip), vehicle: saline with Tween-80", "result": "110 % of control"}, {"measurement": "T/C", "setting": "dose: 50.0 mg/kg/injection, schedule: Q04DX003 (ip), vehicle: saline with Tween-80", "result": "115 % of control"}, {"measurement": "T/C", "setting": "dose: 75.0 mg/kg/injection, schedule: Q04DX003 (ip), vehicle: saline with Tween-80", "result": "110 % of control"}]}
{"smiles": "COC(=O)c1ccccc1N=Nc1ccc(N(CCCl)CCCl)cc1", "values": [{"measurement": "T/C", "setting": "dose: 50.0 mg/kg/injection, schedule: Q01DX001 (ip), vehicle: Klucel (hydroxypropylcellulose) (HPC)", "result": "112 % of control"}, {"measurement": "T/C", "setting": "dose: 100.0 mg/kg/injection, schedule: Q01DX001 (ip), vehicle: Klucel (hydroxypropylcellulose) (HPC)", "result": "108 % of control"}, {"measurement": "T/C", "setting": "dose: 200.0 mg/kg/injection, schedule: Q01DX001 (ip), vehicle: Klucel (hydroxypropylcellulose) (HPC)", "result": "113 % of control"}]}
{"smiles": "Cn1c(=O)c2c(nc(/N=C/c3ccncc3)n2C)n(C)c1=O", "values": [{"measurement": "T/C", "setting": "dose: 100.0 mg/kg/injection, schedule: Q04DX003 (ip), vehicle: saline", "result": "101 % of control"}, {"measurement": "T/C", "setting": "dose: 200.0 mg/kg/injection, schedule: Q04DX003 (ip), vehicle: saline", "result": "101 % of control"}, {"measurement": "T/C", "setting": "dose: 400.0 mg/kg/injection, schedule: Q04DX003 (ip), vehicle: saline", "result": "101 % of control"}]}
